Laboratory results as given in patent US20040191207A1, “ALPHA-HYDROXY ACID ESTER DRUG DELIVERY COMPOSITIONS AND METHODS OF USE” (priority 2003, published 2004).
Where two headings read alike, the source gives them in different places.

Columns and labels:
[1] = Experimental: Various pharmaceutical drug actives and prodrugs were screened to test for solubility in the compositions including alpha-hydroxy acid esters. Solubility was determined by adding various amounts of the drug to a composition including alpha-hydroxy acid esters, mixing, and then visually determining the solubility. The composition selected for the screening was Imwitor™ 380, a partially neutralized mixture of citric acid/lactic acid esters of partial glycerides. Imwitor™ 380 contains approximately 60% citric acid/lactic acid esters of partial glycerides, less than 32% 1-monoglyceride, and not more than 5% glycerol (Product Information Sheet, 26.13.199e/07.98; Sasol).
Mixtures were based on weight/weight and ranged from 5% drug/95% Imwitor™ 380 to 15% drug/85% Imwitor™ 380. The samples were prepared in 12 ml glass vials, containing a stirbar to ensure adequate mixing, and sealed with Teflon lined caps (National Scientific Co.; vial: part no B7800-12; cap: 15-425).

[2] = remark: listed apart in the source
Experimental: Mixtures were based on weight/weight and ranged from 5% drug/95% unneutralized Imwitor™ 380 to 10% drug/90% unneutralized Imwitor™ 380. The samples were prepared in scintillation vials (Research Products International) containing a stirbar to ensure adequate mixing.

For `CCOC(=O)C(C)(C)Oc1ccc(Cl)cc1` [Clofibrate, clofibrate], the Solubility [1] was >150 mg/gm and the Solubility [2] was >100 mg/gm.
For `CCCC(CCC)C(=O)O` [Valproic Acid, valproic acid], the Solubility [1] was >150 mg/gm and the Solubility [2] was >100 mg/gm.
